Measurements from patent US7598419B2, “Compounds for modulating cell proliferation” (HSC Research and Development Limited Partnership, priority 2004, dated 2009).

Key:
[1] = tested on: cells of the myeloid lineage; settings: in vitro, ex vivo and in vivo; cited from earlier work
normal bone marrow cells [2] = test: In vitro purging of normal bone marrow; type: cell-based, human; settings: 50 μM, seven hours exposure; FIG. 21
Experimental: Heparinized bone marrow cells were layered over Percoll (1.077 gm/ml) (Pharmacia Fine Chemical, Piscataway N.J.) and centrifuged at 400 g at 4° C. for 10 minutes to remove neutrophils and RBCs.
(§1) For the purging process, the cells were resuspended at 1×10^6/ml in complete medium with or without 50 μM CR4. The cells were incubated with the CR4 for two and a half hours at 37° C., 5% CO2. At the end of this period the cells were thoroughly washed in medium to remove CR4 and then cultured at 2×10^5 cells/ml in IMDM (OCI, Toronto) containing 0.9% (vol/vol) methylcellulose supplemented with 30% FCS (Cansera Rexdale, ON.) or normal human plasma, a cocktail of cytokines containing G-CSF (10 ng/ml, Amgen), IL-3 (40 U/ml, Immunex), MGF (50 ng/ml, Immunex), Erythropoietin (2 u/ml, Epprex) or TPO (10 ng/ml, Amgen) and 5×10^−5M β-2-mercaptoethanol. The culture mixture was plated in 1 ml volumes into 35 mm petri dishes and incubated at 37° C., 5% CO2 in a humidified atmosphere. All cultures were evaluated at 14 days for the number of BFU-E colonies (defined as aggregates of more than 500 hemaglobinized cells or, 3 or more erythroid subcolonies), CFU-C colonies (defined as granulocyte or monocyte-macrophage cells or both) and CFU-GEMM colonies (a mixed population comprising of all elements).
as §1, with “μM CR11.” for “μM CR4.”, “the tryrphostin” for “the CR4”, “for seven” for “for two and a half”, “remove CR11” for “remove CR4”, “methylcellulose supplementd” for “methylcellulose supplemented”, “500 hemoglobinized” for “500 hemaglobinized”

[3] = tested on: Philadelphia positive acute lymphoblastic leukemia cells; test: In vitro purging of Philadelphia positive ALL with CR11; type: cell-based, human; settings: 50 μM, 7 hours exposure; FIG. 22
Experimental: For the purging assay, the cells were resuspended in complete medium with or without CR11 as indicated and incubated at 37° C., 5% CO2 for 0-7 hours. Cells were then washed thoroughly with medium to remove the CR11, resuspended and plated in 1 ml volumes, in the absence of exogenous growth factors, into 35 mm petri dishes (Nunc, Gibco) containing alpha MEM (Gibco) plus 20% FCS (Cansera Rexdale, ON.) in 0.9% (vol/vol) methylcellulose (Fluka, Switzerland). Cultures were set at 37° C., 5% CO2 in a humidified atmosphere. Colonies consisting of more than 20 cells were counted at 9 days or earlier using an inverted microscope.

[4] = tested on: a variety of cancer cells; test: Growth of cancer cells in culture (summary over cell types); type: cell-based; settings: for effectiveness against a variety of cell types: Acute Lymphoblastic Leukemia, Philadelphia positive Leukemia, Acute Myeloid Leukemia
[5] = tested on: Philadelphia positive ALL, AML and lymphoma; test: High dose ex vivo / in vitro purging assays (summary); type: cell-based
normal bone marrow cells [6] = test: CFU-GEMM assay: normal bone marrow differentiation in culture; type: cell-based, human
Experimental: (§2) The CFU-GEMM assay was performed according to Fauser and Messner (1978, Blood, 52(6) 143-8) and Messner and Fausser (1980, Blut, 41(5) 327-33) with some variations. In brief, heparinized bone marrow cells were layered over Percoll (1.077 gm/ml) (Pharmacia Fine Chemical, Piscataway N.J.) and centrifuged at 400 g at 4° C. for 10 minutes to remove neutrophils and RBCs. The fractionated BM cells at 2×10^5 cells/ml were cultured in IMDM (OCI, Toronto) containing 0.9% (vol/vol) methylcellulose supplementd with 30% FCS (Cansera Rexdale, ON.) or normal human plasma, a cocktail of cytokines containing G-CSF (10 ng/ml, Amgen), IL-3 (40 U/ml, Immunex), MGF (50 ng/ml, Immunex), Erythropoietin (2 u/ml, Epprex) or TPO (10 ng/ml, Amgen), 5×10^−5M β-2-mercaptoethanol and the specified concentration of CR4. The culture mixture was plated in 1 ml volumes into 35 mm petri dishes and incubated at 37° C., 5% CO2 in a humidified atmosphere. All cultures were evaluated at 14 days for the number of BFU-E colonies (defined as aggregates of more than 500 hemoglobinized cells or, 3 or more erythroid subcolonies), CFU-GM colonies (defined as granulocyte or monocyte-macrophage cells or both), CFU-Meg colonies (comprising 4 or more megakaryocytes) and CFU-GEMM colonies (a mixed population comprising of all elements).
as §2, with “1243-8)” for “143-8)”, “concentrations” for “concentration”, “CR19.” for “CR4.”, “hemaglobinized” for “hemoglobinized”, “subcolonies) and CFU-C” for “subcolonies), CFU-GM”, “both).” for “both), CFU-Meg colonies (comprising 4 or more megakaryocytes) and CFU-GEMM colonies (a mixed population comprising of all elements).”
as §2, with “1243-8)” for “143-8)”, “variations (British Journal of Haematology, 1992, 80, p 40-48).” for “variations.”, “test compound.” for “CR4.”, “CO2,” for “CO2”, “subcolonies) and CFU-C” for “subcolonies), CFU-GM”, “both).” for “both), CFU-Meg colonies (comprising 4 or more megakaryocytes) and CFU-GEMM colonies (a mixed population comprising of all elements).”

[7] = tested on: Philadelphia positive acute lymphoblastic leukemia (Ph+ ALL) cells; test: Colony assay of Philadelphia positive ALL cells in methylcellulose culture; type: cell-based, human
Experimental: Ph+ ALL cells were plated in 1 ml volumes, in the absence of exogenous growth factors, into 35 mm petri dishes (Nunc, Gibco) containing alpha MEM (Gibco) plus 10-20% FCS (Cansera Rexdale, ON.) in 0.9% (vol/vol) methylcellulose (Fluka, Switzerland) with the indicated concentrations of CR4. Cultures were set at 37° C., 5% CO2 in a humidified atmosphere. Colonies consisting of more than 20 cells were counted at 12 days or earlier using an inverted microscope.
ALL cells were plated in 1 ml volumes, in the absence of exogenous growth factors, into 35 mm petri dishes (Nunc, Gibco) containing alpha MEM (Gibco) plus 20% FCS (Cansera Rexdale, ON.) in 0.9% (vol/vol) methylcellulose (Fluka, Switzerland) and the indicated concentrations of compound. Cultures were set at 37° C., 5% CO2 in a humidified atmosphere. Colonies consisting of more than 20 cells were counted at 12 days or earlier using an inverted microscope.
ALL cells were plated in 1 ml volumes, in the absence of exogenous growth factors, into 35 mm petri dishes (Nunc, Gibco) containing alpha MEM (Gibco) plus 20% FCS (Cansera Rexdale, ON.) in 0.9% (vol/vol) methylcellulose (Fluka, Switzerland) and the indicated concentrations of CR24. Cultures were set at 37° C., 5% CO2 in a humidified atmosphere. Colonies consisting of more than 20 cells were counted at 9 days or earlier using an inverted microscope.
ALL cells were plated in 1 ml volumes, in the absence of exogenous growth factors, into 35 mm petri dishes (Nunc, Gibco) containing alpha MEM (Gibco) plus 20% FCS (Cansera Rexdale, ON.) in 0.9% (vol/vol) methylcellulose (Fluka, Switzerland) and the indicated concentrations of CR19. Cultures were set at 37° C., 5% CO2 in a humidified atmosphere. Colonies consisting of more than 20 cells were counted at 9 days or earlier using an inverted microscope.

[8] = low nanomolar doses, long term exposure

SMILES: COc1cc(/C=C/C=C(C#N)C#N)cc(OC)c1O [CR7, (E,E)-2-cyano-3-(3,5-dimethoxy-4-hydroxystyryl)acrylonitrile]
- promotion of myelopoiesis [1]: capable of promoting myelopoiesis

SMILES: COc1cc(/C=C/C=C(\C#N)C(=O)NCCc2ccccc2)cc(OC)c1O [CR8, (E,E)-2-(Phenylethylaminocarbonyl)-3-(3,5-dimethoxy-4-hydroxystyryl)acrylonitrile]
- promotion of myelopoiesis [1]: capable of promoting myelopoiesis

SMILES: COc1cc(/C=C/C=C(\C#N)C(=O)NCc2ccc(O)c(O)c2)cc(OC)c1O [CR11, (E,E)-2-(3,4-Dihydroxybenzylaminocarbonyl)-3-(3,5-dimethoxy-4-hydroxystyryl)acrylonitrile]
- BFU-E, CFU-GEMM and CFU-C colonies after purging (normal bone marrow cells [2]): all normal
- colony formation of normal bone marrow after purging (normal bone marrow cells [2]): did not result in any significant inhibition
- killing of Ph+ ALL cells after purging [3]: complete killing
- effectiveness against a variety of cell types [4]: highly effective
- effectiveness as ex vivo purging agents [5]: effective
- promotion of myelopoiesis [1]: capable of promoting myelopoiesis

SMILES: N#C/C(=C\C=C\c1ccccc1)C(=O)NCc1ccc(O)c(O)c1 [CR19, (E,E)-2-(3,4 Dihydroxybenzylaminocarbonyl)-3-styrylacrylonitrile]
- CFU-C colony formation (normal bone marrow cells [6]; 2.5 μM, 14 days, FIG. 12): boosted
- development of BFU-E colonies (normal bone marrow cells [6]; 2.5 μM, 14 days, FIG. 12): significant inhibition
- BFU-E colonies (normal bone marrow cells [6]; 5 μM, 14 days, FIG. 12): virtually absent
- CFU-C colony formation (normal bone marrow cells [6]; 5 μM, 14 days, FIG. 12): stimulatory effect disappeared
- normal cell growth and differentiation (normal bone marrow cells [6]; [8]): unaffected
- effectiveness against a variety of cell types [4]: highly effective
- toxicity to cancer cells [4, 8]: highly toxic
- promotion of myelopoiesis [1]: capable of promoting myelopoiesis

SMILES: N#C/C(=C\C=C\c1ccc(O)c(O)c1)C(=O)NCc1ccc(O)c(O)c1 [CR21, (E,E)-2-(3,4 Dihydroxybenzylaminocarbonyl)-3-(3,4-dihydroxystyryl)acrylonitrile]
- BFU-E colony formation (normal bone marrow cells [6]; 20 μM, 14 days, FIG. 13): caused inhibition
- concentrations displaying inhibition of Ph+ ALL cell growth ([7]; Example 42, FIG. 8, colonies at 12 days): 5 µM

SMILES: COc1cc(/C=C/C=C(\C#N)C(=O)NCCO)cc(OC)c1O [CR24, (E,E)-2-(β-Ethanolaminocarbonyl)-3-(3,5-dimethoxy-4-hydroxystyryl)acrylonitrile]
- bone marrow colony formation (normal bone marrow cells [6]; 10 or 20 μM, 14 days, FIG. 13): minimal inhibition
- lowest concentration effective against Ph+ ALL cells ([7]; colonies at 9 days, FIG. 10): 0.5 µM

SMILES: COc1cc(/C=C/C=C(\C#N)C(=O)NCc2ccccc2)ccc1O [CR56, (E,E) 2-(benzylaminocarbonyl)-3-(3-methoxy-4-hydroxystyryl)acrylonitrile]
- promotion of myelopoiesis [1]: capable of promoting myelopoiesis
